From patent US20240284906A1, “HERBICIDAL COMPOSITIONS CONTAINING CINMETHYLINE AND ETHOFUMESATE” (BAYER AKTIENGESELLSCHAFT, priority 2021, published 2024)

What was measured:
Veronica persica = test: Pre-emergence weed control, pot trial; assay type: in vivo; conditions: pre-emergence (BBCH 00), 27 DAA, scale 0-100
Procedure: (§1) The following plant species were selected for the tests:
(§2) The seeds of the abovementioned biotypes were sown in 8 cm pots (LSI; pH 7.4; % C org 2.2). The temperature was kept at about 23°/15° C. day/night. After the herbicides had been applied (300 l water/ha), the pots were irrigated from beneath as required. Two trials were conducted. In a pre-emergence trial, the herbicides were applied directly after sowing at the BBCH 00 growth stage. In a post-emergence trial, the herbicides were deployed at the BBCH 11-12 growth stage.
(§3) The active herbicidal ingredient cinmethylin was used as commercial emulsifiable concentrate (EC) LUMIMAX. Ethofumesate was used in the form of the commercial suspension concentrate (SC) Nortron. A methylated seed oil (Mero) was added to the spray liquids in an amount of 1 l/ha in order to assure good retention characteristics.
(§4) The percentage of weed control (2 repetitions) was rated 27 days after the application of herbicide (DAA) on a scale of 0-100. A rating of 0 means no control, and 100 means complete control.
(§5) According to Colby, synergistic effects of active herbicidal ingredients are indicated when the measured efficacy is higher than that expected, which is calculated by its formula for 2-substance mixtures: EC=A+B−(A×B)/100

Avena fatua = test: Pre-emergence weed control, pot trial; assay type: in vivo; conditions: pre-emergence (BBCH 00), 27 DAA, scale 0-100
Procedure: as §1, §2, §3, §4, §5

MATIN [1] = test: Post-emergence weed control, pot trial; assay type: in vivo, Matricaria inodora; conditions: post-emergence (BBCH 11-12), 27 DAA, scale 0-100
Procedure: as §1, §2, §3, §4, §5

MATIN [2] = test: Pre-emergence weed control, pot trial; assay type: in vivo, Matricaria inodora; conditions: pre-emergence (BBCH 00), 27 DAA, scale 0-100
Procedure: as §1, §2, §3, §4, §5

Alopecurus myosuroides = test: Post-emergence weed control, pot trial; assay type: in vivo; conditions: post-emergence (BBCH 11-12), 27 DAA, scale 0-100
Procedure: as §1, §2, §3, §4, §5

Lolium rigidum = test: Post-emergence weed control, pot trial; assay type: in vivo; conditions: post-emergence (BBCH 11-12), 27 DAA, scale 0-100
Procedure: as §1, §2, §3, §4, §5

Abuthilon theophrasti = test: Post-emergence weed control, pot trial; assay type: in vivo; conditions: post-emergence (BBCH 11-12), 27 DAA, scale 0-100
Procedure: as §1, §2, §3, §4, §5

Question: For `CCOC1Oc2ccc(OS(C)(=O)=O)cc2C1(C)C` (centres unmarked) [Ethofumesate], which “Efficacy (percentage of weed control) VERPE” value (Veronica persica; 10 g ai/ha) is on record?
Answer: The value was 0%.

Question: And the “Efficacy (percentage of weed control) AVEFA” value (Avena fatua; 20 g ai/ha)?
Answer: The value was 0%.

Question: And the “Efficacy (percentage of weed control) MATIN” value (MATIN [1]; 50 g ai/ha)?
Answer: Its value is 10%.

Question: What about the “Efficacy (percentage of weed control) MATIN” value (MATIN [2]; 10 g ai/ha) of the same molecule?
Answer: Its value is 0%.

Question: What about the “Efficacy (percentage of weed control) ALOMY” value (Alopecurus myosuroides; 20 g ai/ha) of the same molecule?
Answer: Its value is 0%.

Question: And the “Efficacy (percentage of weed control) LOLRI” value (Lolium rigidum; 20 g ai/ha)?
Answer: Its value is 0%.

Question: And the “Efficacy (percentage of weed control) ABUTH” value (Abuthilon theophrasti; 20 g ai/ha)?
Answer: Its value is 0%.

Question: What does the source list for `Cc1ccccc1CO[C@@H]1C[C@]2(C(C)C)CC[C@@]1(C)O2` (racemic) [Cinmethylin, (+/−)-2-exo-(2-methylbenzyloxy)-1-methyl-4-isopropyl-7-oxabicyclo[2.2.1]heptane]?
Answer: Efficacy (percentage of weed control) VERPE (Veronica persica; 50 g ai/ha): 20%; Efficacy (percentage of weed control) AVEFA (Avena fatua; 100 g ai/ha): 70%; Efficacy (percentage of weed control) MATIN (MATIN [1]; 25 g ai/ha): 20%; Efficacy (percentage of weed control) MATIN (MATIN [2]; 50 g ai/ha): 70%; Efficacy (percentage of weed control) ALOMY (Alopecurus myosuroides; 100 g ai/ha): 78%; Efficacy (percentage of weed control) LOLRI (Lolium rigidum; 100 g ai/ha): 63%; Efficacy (percentage of weed control) ABUTH (Abuthilon theophrasti; 100 g ai/ha): 35%
